Values joined by “and” are separate entries in the source; they are usually repeats but may differ in a detail not shown here. Equal entries are not always repeated.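 All cell lines were grown in 96-well plates and treated with compound for 48 hours. Abbreviation: GI50, concentration required for 50% inhibition of growth.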 Active and inactive are the calls of the source. No stated cut-off is given here; in the data, active = GI50 up to about 1.1 µM and inactive = higher.
Columns and labels:
Assay in all cases: inhibition of tumour cell growth, NCI panel, 48 h
786-0 = tested on: 786-0
A549 = tested on: A549
ACHN = tested on: ACHN
CAKI-1 = tested on: CAKI-1
CCRF-CEM = tested on: CCRF-CEM
DU-145 = tested on: DU-145
Hs-578T = tested on: Hs-578T
KM12 = tested on: KM12
MDA-MB-435 = tested on: MDA-MB-435
MDA-N = tested on: MDA-N
NCI-H226 = tested on: NCI-H226
OVCAR-4 = tested on: OVCAR-4
OVCAR-5 = tested on: OVCAR-5
PC-3 = tested on: PC-3
SF-268 = tested on: SF-268
SK-MEL-5 = tested on: SK-MEL-5
SK-OV-3 = tested on: SK-OV-3
SNB-19 = tested on: SNB-19
TK-10 = tested on: TK-10
U-251 = tested on: U-251

Compound | GI50 (786-0) | GI50 (A549) | GI50 (ACHN) | GI50 (CAKI-1) | GI50 (CCRF-CEM) | GI50 (DU-145) | GI50 (Hs-578T) | GI50 (KM12) | GI50 (MDA-MB-435) | GI50 (MDA-N) | GI50 (NCI-H226) | GI50 (OVCAR-4) | GI50 (OVCAR-5) | GI50 (PC-3) | GI50 (SF-268) | GI50 (SK-MEL-5) | GI50 (SK-OV-3) | GI50 (SNB-19) | GI50 (TK-10) | GI50 (U-251)
Nc1c2ccccc2nc2ccc(C(=O)Nc3ccc(S(N)(=O)=O)cc3)cc12 | > 100 µM (inactive) | > 100 µM (inactive) | > 100 µM (inactive) | > 100 µM (inactive) | > 100 µM (inactive) | > 100 µM (inactive) | > 100 µM (inactive) | > 100 µM (inactive) | > 100 µM (inactive) | > 100 µM (inactive) | > 100 µM (inactive) | > 100 µM (inactive) | > 100 µM (inactive) | > 100 µM (inactive) | > 100 µM (inactive) | > 100 µM (inactive) | > 100 µM (inactive) | > 100 µM (inactive) | > 100 µM (inactive) | > 100 µM (inactive)
Cc1ccccc1N(C)S(=O)(=O)c1ccccc1[N+](=O)[O-] | 87.3 µM (inactive) | 45.9 µM (inactive) | 81.8 µM (inactive) | 59.3 µM (inactive) | 35.8 µM (inactive) | > 100 µM (inactive) | 66.1 µM (inactive) | 55.7 µM (inactive) | 33.4 µM (inactive) | 45.5 µM (inactive) | 33.1 µM (inactive) | 67.6 µM (inactive) | 66.7 µM (inactive) | 38.9 µM (inactive) | 40.7 µM (inactive) | 15.4 µM (inactive) | 53.6 µM (inactive) | 67.8 µM (inactive) | > 100 µM (inactive) | 36.3 µM (inactive)
CCN1C(=O)/C(=C2\SC(c3ccccc3)(c3ccccc3)c3ccccc32)SC1=S | 43.3 µM (inactive) | 87.9 µM (inactive) | > 100 µM (inactive) |  | > 100 µM (inactive) | > 100 µM (inactive) | 32.2 µM (inactive) | > 100 µM (inactive) | > 100 µM (inactive) | > 100 µM (inactive) | > 100 µM (inactive) | 63.4 µM (inactive) | > 100 µM (inactive) | 74.5 µM (inactive) | 36.3 µM (inactive) | > 100 µM (inactive) | > 100 µM (inactive) | 10.1 µM (inactive) | > 100 µM (inactive) | 44.7 µM (inactive)
Fc1cccc(F)c1C1SCc2nc3cc(Cl)ccc3n21 (centres undefined) | 25.7 µM (inactive) | 31.3 µM (inactive) | 31.3 µM (inactive) | 16.6 µM (inactive) | 25.6 µM (inactive) | 68.5 µM (inactive) | > 44.7 µM (inactive) | 22.8 µM (inactive) | 33 µM (inactive) | 32.8 µM (inactive) |  | 35.9 µM (inactive) | 84.1 µM (inactive) | 34.4 µM (inactive) | > 100 µM (inactive) | 16 µM (inactive) | 80.2 µM (inactive) | 92.5 µM (inactive) | > 100 µM (inactive) | 22 µM (inactive)
COc1ccc(NC2Oc3cc4c(cc3C(c3cccc(OC)c3OC)C2C)OCO4)cc1 (centres undefined) | 7.96 µM (inactive) | 5.53 µM (inactive) | 4.59 µM (inactive) | 3.72 µM (inactive) | 3.61 µM (inactive) | 4.16 µM (inactive) | 7.96 µM (inactive) | 6.68 µM (inactive) | 10 µM (inactive) | 7.89 µM (inactive) | 6.82 µM (inactive) |  | 19.2 µM (inactive) | 3.62 µM (inactive) | 10.1 µM (inactive) | 13.6 µM (inactive) | 70 µM (inactive) | 53.3 µM (inactive) | 6.4 µM (inactive) | 4.01 µM (inactive)
COc1ccc(C2Oc3c(OC)cc(CCCO)cc3C2CO)cc1OC (centres undefined) | > 100 µM (inactive) | 88.1 µM (inactive) and 80 µM (inactive) | > 100 µM (inactive) and 76.6 µM (inactive) |  |  | > 100 µM (inactive) | > 100 µM (inactive) | > 100 µM (inactive) and 79.3 µM (inactive) | 70 µM (inactive) and 93.5 µM (inactive) | 93.1 µM (inactive) and 71.4 µM (inactive) | > 100 µM (inactive) | > 100 µM (inactive) | > 100 µM (inactive) | > 100 µM (inactive) | > 100 µM (inactive) |  | > 100 µM (inactive) | > 100 µM (inactive) | > 100 µM (inactive) | > 100 µM (inactive)
C#CCn1c(=O)c(I)cn(/C(=C/C(=O)OCC)C(=O)OCC)c1=O | 1.63 µM (inactive) | 18 µM (inactive) | 1.67 µM (inactive) | 1.86 µM (inactive) | 3.53 µM (inactive) | 10 µM (inactive) | 15 µM (inactive) | 18 µM (inactive) | 7.6 µM (inactive) | 3.37 µM (inactive) | 25.7 µM (inactive) | 8.22 µM (inactive) | 16.2 µM (inactive) | 5.06 µM (inactive) | 9.44 µM (inactive) |  | 17.9 µM (inactive) | 18.3 µM (inactive) | 0.3 µM (active) | 16.6 µM (inactive)
C(=N\c1ccc2c(c1)Cc1ccccc1-2)/c1ccccn1 | 34.8 µM (inactive) | > 100 µM (inactive) | > 100 µM (inactive) | > 100 µM (inactive) | 23 µM (inactive) | 88.3 µM (inactive) | 92.3 µM (inactive) | 89.3 µM (inactive) | 77.8 µM (inactive) | 28.9 µM (inactive) | > 100 µM (inactive) | > 100 µM (inactive) | > 100 µM (inactive) | 38.7 µM (inactive) | 76.4 µM (inactive) | 61.5 µM (inactive) |  | > 100 µM (inactive) | 42.7 µM (inactive) | 63.1 µM (inactive)
Brc1ccc(-c2ccc(-c3ccc(-c4ccc(Br)s4)s3)s2)s1 | > 100 µM (inactive) | > 100 µM (inactive) | > 100 µM (inactive) | > 100 µM (inactive) | > 100 µM (inactive) | > 100 µM (inactive) | > 100 µM (inactive) | > 100 µM (inactive) | > 100 µM (inactive) | > 100 µM (inactive) | 54.1 µM (inactive) | > 100 µM (inactive) | > 100 µM (inactive) | > 100 µM (inactive) | > 100 µM (inactive) | > 100 µM (inactive) | > 100 µM (inactive) |  | > 100 µM (inactive) | > 100 µM (inactive)
N#CC1Nc2ccccc2[C@@H](O)C1O (some centres undefined) | > 100 µM (inactive) | > 100 µM (inactive) | > 100 µM (inactive) | > 100 µM (inactive) | > 100 µM (inactive) | > 100 µM (inactive) | > 100 µM (inactive) | > 100 µM (inactive) | > 100 µM (inactive) | > 100 µM (inactive) |  | > 100 µM (inactive) | > 100 µM (inactive) | > 100 µM (inactive) | > 100 µM (inactive) | > 100 µM (inactive) | > 100 µM (inactive) |  | > 100 µM (inactive) | > 100 µM (inactive)
CCOC(=O)C1(Cc2ccccc2)Cc2cc3c(cc2C1=O)CCC3 (centres undefined) | > 100 µM (inactive) | > 100 µM (inactive) | > 100 µM (inactive) |  | > 100 µM (inactive) | > 100 µM (inactive) | > 100 µM (inactive) | > 100 µM (inactive) | > 100 µM (inactive) | > 100 µM (inactive) | > 100 µM (inactive) | > 100 µM (inactive) | > 100 µM (inactive) | > 100 µM (inactive) | > 100 µM (inactive) | > 100 µM (inactive) | > 100 µM (inactive) | > 100 µM (inactive) | > 100 µM (inactive) | > 100 µM (inactive)
c1ccc2nc3c(nc2c1)sc1nc2ccccc2n13 | 46.1 µM (inactive) | > 100 µM (inactive) | 92 µM (inactive) | > 100 µM (inactive) | > 100 µM (inactive) | > 100 µM (inactive) | > 100 µM (inactive) | > 100 µM (inactive) | > 100 µM (inactive) | > 100 µM (inactive) | > 100 µM (inactive) |  | > 100 µM (inactive) | > 100 µM (inactive) | 56.1 µM (inactive) | > 100 µM (inactive) | > 100 µM (inactive) | 93.8 µM (inactive) | > 100 µM (inactive) | > 100 µM (inactive)
COC(=O)C12CCC(C(F)(F)C1=O)C2(C)C (centres undefined) | > 100 µM (inactive) | > 100 µM (inactive) | > 100 µM (inactive) | > 100 µM (inactive) |  | > 100 µM (inactive) | > 100 µM (inactive) | > 100 µM (inactive) | > 100 µM (inactive) | > 100 µM (inactive) | > 100 µM (inactive) | > 100 µM (inactive) | > 100 µM (inactive) | > 100 µM (inactive) | > 100 µM (inactive) | > 100 µM (inactive) | > 100 µM (inactive) | > 100 µM (inactive) | > 100 µM (inactive) | > 100 µM (inactive)
O=C(N/N=C\c1cccc2ccccc12)Nc1cccc2ccccc12 | 11.7 µM (inactive) | 44.1 µM (inactive) | 23.2 µM (inactive) | 25.7 µM (inactive) | 18.2 µM (inactive) | > 100 µM (inactive) | 43 µM (inactive) | 11 µM (inactive) | 3.95 µM (inactive) | 3.84 µM (inactive) | 49.4 µM (inactive) | > 10 µM (inactive) | > 100 µM (inactive) | 26.9 µM (inactive) | 63.4 µM (inactive) | 13.1 µM (inactive) |  | 16.4 µM (inactive) | 19.9 µM (inactive) | 11.4 µM (inactive)
O=C(O)Cc1ccc2nc(COC(=O)c3ccccc3)sc2c1 | > 100 µM (inactive) | > 100 µM (inactive) | > 100 µM (inactive) | > 100 µM (inactive) | < 0.01 µM (active) | > 100 µM (inactive) | > 100 µM (inactive) | > 100 µM (inactive) | > 100 µM (inactive) | > 100 µM (inactive) |  | > 100 µM (inactive) | > 100 µM (inactive) | > 100 µM (inactive) | > 100 µM (inactive) | > 100 µM (inactive) | > 100 µM (inactive) | > 100 µM (inactive) | > 100 µM (inactive) | > 100 µM (inactive)

— ChEMBL document CHEMBL1201862, “PubChem BioAssay data set” (2004)
